Assays:
[1] = octanol saline (1:1) partition; type: physicochemical; settings: read-out: Partition Coefficients (converted)
Description: Partition coefficients relate to octanol saline (1:1) partition

[2] = removal of Cu^2+ from an equimolar mixture of Cu^2+ and Fe^3+; settings: 3 mM each Cu^2+ and Fe^3+, 6 mM citric acid, pH 6.8 with KOH; 4.5 mM carrier in chloroform; receiver 3 mM DTPA at pH 2
Description: A third example is the removal of Cu^2+ from an equimolar mixture of Cu^2+ and Fe^3+ (3 mM each in the presence of 6 mM citric acid titrated to pH 6.8 with KOH) with less than 10% contamination of Fe^3+, by using a carrier (n=2, m=0, q=0, R^1 =CH3) 4.5 mM concentration in chloroform and in the receiver phase 3 mM DTPA at pH2.

[3] = selective extraction and transport from an equimolar mixture of six bivalent metal ions through a CHCl3 bulk membrane (U-tube, ion chromatography)
Description: Several of the ion binders, when incorporated into bulk membranes, selectively extract and transport a specific metal ion from a plurality of cations. An example is the quantitative separation of Cu^2+ from a mixture of six two-valent metal ions. This is illustrated by the quantitative removal of Cu^2+ from an equimolar mixture (10 mM each) of Pb^2+, Cu^2+, Cd^2+, Co^2+, Zn^2+ and Ni^2+ in water.

[4] = removal of Zn^2+ from an equimolar mixture of Zn^2+ and Cd^2+ (ion chromatography); settings: 20 mM each Zn^2+ and Cd^2+; 3.0 mM carrier in chloroform

| SMILES | logP [1] | also measured |
| --- | --- | --- |
| CC(NC(=O)COCC(C)(C)COCC(=O)NC(C)C(=O)N(C)O)C(=O)N(C)O (stereo not drawn) [q = 1, n=1, R=Me, R^1=Me, R^2=Me, R^3=Me] | 0.29 | – |
| CC(C)CC(NC(=O)COCC(C)(C)COCC(=O)NC(CC(C)C)C(=O)N(C)O)C(=O)N(C)O (stereo not drawn) | 0.568 | – |
| CN(O)C(=O)CCOCC(C)(C)COCCC(=O)N(C)O [q = 0, n=2, R^1=Me, R^2=Me, R^3=Me] | -0.0862 | contamination of Fe^3+ on removal of Cu^2+ [2]: less than 10% |
| CCOC(=O)CCN(O)C(=O)COCC(C)(C)COCC(=O)N(O)CCC(=O)OCC | 0.5 | – |
| CCCC(C)(COCC(=O)N(C)O)COCC(=O)N(C)O [q = 0, n=1, R^1=Me, R^2=Me, R^3=Pr] | 0.29 | – |
| CN(O)C(=O)COCC(C)(C)COCC(=O)N(C)O [q = 0, n=1, R^1=M, R^2=Me, R^3=Me] | 0.352 | – |
| CC(C)C[C@H](NC(=O)CCOCC(C)(C)COCCC(=O)N[C@@H](CC(C)C)C(=O)N(C)O)C(=O)N(C)O | 1.2 | removal of Cu^2+ from equimolar mixture ([3]; 10 mM each of Pb^2+, Cu^2+, Cd^2+, Co^2+, Zn^2+, Ni^2+ in water, 0.3 mM carrier in CHCl3, receiver 0.1 M H2SO4): quantitatively removed; contamination by other metals ([3]; 10 mM each of six metal ions, 0.3 mM carrier in CHCl3, receiver 0.1 M H2SO4, DIONEX ion chromatography): without a trace of contamination by other metals; metal content of receiver arm after extraction ([3]; after 160 hours, equimolar mixture of six cations (FIG. 1B)): containing only Cu^2+; contamination of Cd^2+ on removal of Zn^2+ [4]: without any contamination of Cd^2+ |
